From patent US20230144619A1, “SALT OF ARYLAMINOPURINE DERIVATIVE, PREPARATION METHOD THEREFOR AND USE THEREOF” (CSPC Zhongqi Pharmaceutical Technology (Shijiazhuang) Co., …, priority 2020, published 2023)
Values after ≈ are worked out from the molar mass of the structure shown.

Experiments:
Assay type in all cases: physicochemical
[1] = Solubility test (UV spectrophotometer, saturated solutions shaken 24 hours); conditions: 25° C.; for Solubility, Water medium pH = 1.2: pH=1.2 hydrochloric acid solution; for Solubility, Water medium pH = 4.5: pH=4.5 phosphate buffer solution; for Solubility, Water medium pH = 6.8: pH=6.8 phosphate buffer solution; for Solubility, Water medium: water (purified water)
Method: Detection instrument: Ultraviolet spectrophotometer/Evolution 300
The following solutions with pH=1.2, pH=4.5, and pH=6.8 and water were used as the solvent, and the solvent preparation process was as follows:
(1) pH=1.2 hydrochloric acid solution: To 7.65 mL of hydrochloric acid was added 1000 mL of water, and the mixture was shaken uniformly to obtain the target solution.
(2) pH=4.5 phosphate buffer solution: 6.8 g of potassium dihydrogen phosphate was taken and diluted with water to 1000 mL, and the mixture was shaken uniformly to obtain the target solution.
(2) pH=6.8 phosphate buffer solution: 6.8 g of potassium dihydrogen phosphate and 0.896 g of sodium hydroxide were taken and diluted with water to 1000 mL, and the mixture was shaken uniformly to obtain the target solution.
(4) Water: purified water
Test tubes with stopper were taken, and 10 mL of dissolution media at various pH values were precisely added to the test tubes respectively, and excessive stock drugs were added until supersaturated solutions were formed. The adding amounts were recorded. The solutions were shaken uniformly, sealed with stoppers, and shaken for 24 hours in a shaker. 2 mL of solutions were taken out at different time points respectively, and centrifuged. The resulting supernatants were taken, filtered, and the subsequent filtrates were taken for later use.
The above-mentioned saturated solutions in different solvents were taken, and solvents were added to dilute the solutions to certain volumes. The absorbances were measured at a wavelength of 287 nm.
Preparation of a solution of the reference substance: an appropriate amount of the compound represented by Formula 1 was taken as the reference substance, and precisely weighed. A solvent was added to dissolve and dilute the reference compound to produce a solution containing about 10 μg of the compound represented by Formula 1 per 1 mL. The absorbance was measured at a wavelength of 287 nm to calculate the solubility.
The salts obtained in Examples 1 and 3-17 and the compound represented by Formula 1 were subjected to the solubility test in media and the test results were shown in the following table: […]

[2] = Accelerated stability test
Method: Appropriate amounts of the salt samples obtained from Examples 1 and 3-17 were placed at a temperature of 25±2° C. under 0%±5% RH in an open environment for 10 days and at a temperature of 40±2° C. under 75%±5% RH in an open environment for 10 days respectively to perform the accelerated tests, and the results were as follows: […]

Hygroscopicity test = conditions: 25±1° C., relative humidity 80%±2% (DVS, 80% RH)
Method: Detection instrument: XPE105DR
(1) A dry stoppered glass weighing bottle was taken, placed in a suitable constant-temperature desiccator at 25° C. 1° C. (with a saturated solution of ammonium chloride or ammonium sulfate in the lower part) or an artificial climate box (with the set temperature of 25° C.±1° C. and the relative humidity of 80%±2%) on the day before the test, and precisely weighed and recorded as the weight (m1).
(2) An appropriate amount of the test sample was taken and spread in the above-mentioned weighing bottle. The thickness of the test sample was generally about 1 mm, and the bottle was precisely weighed and recorded as the weight (m2).
(3) The stopper was removed to open the weighing bottle, and the opened weighing bottle and the stopper were placed under the above-mentioned constant temperature and humidity conditions for 24 hours.
(4) The opened weighing bottle was stoppered, precisely weighed, and recorded as the weight (m3).
Percentage increase in mass=(m3−m2)/(m2−m1)×100%
(5) The description of hygroscopicity characteristics and the definition for the weight gain due to hygroscopicity:
Deliquescence: Sufficient water was absorbed to form a liquid.
Very hygroscopic: the weight gain due to hygroscopicity was not less than 15%.
Hygroscopic: the weight gain due to hygroscopicity was less than 15% but not less than 2%.
Slightly hygroscopic: the weight gain due to hygroscopicity was less than 2% but not less than 0.2%.
Not or nearly not hygroscopic: the weight gain due to hygroscopicity was less than 0.2%.
Appropriate amounts of the salt samples obtained from Examples 1 and 3-17 were subjected to the hygroscopicity test at a temperature of 25±1° C. under a relative humidity of 80%±2%, and the results were as follows: […]

DSC and TGA tests = conditions: onset temperature
Method: 6. Differential Scanning Calorimetry-Thermogravimetric Analysis (DSC-TGA)
Detection instrument: NETZSCH STA 449F3
Temperature range: 20° C.-350° C.;
Heating rate: 10.0 (K/min);
7. Differential Scanning Calorimetry (DSC)
Detection instrument: NETZSCH DSC 214 Polyma
Temperature range: 20° C.-250° C.;
Heating rate: 5.0 (K/min);
8. Thermogravimetric Analysis (TGA)
Detection instrument: METTLER and SDT Q600
The salts obtained in Examples 1 and 3-17 and the compound represented by Formula 1 were subjected to the DSC and TGA tests in media, and the test results were shown in the following table: […]

[3] = Placed at 25 ± 2° C. under 0% ± 5% RH in an open environment for 10 days
[4] = Placed at 40 ± 2° C. under 75% ± 5% RH in an open environment for 10 days

Compound | Solubility, Water medium pH = 1.2 [1] | Solubility, Water medium pH = 4.5 [1] | Solubility, Water medium pH = 6.8 [1] | Solubility, Water medium [1] | Appearance [2, 3] | Appearance [2, 4] | Hygroscopicity (Hygroscopicity test) | Weight gain due to hygroscopicity (Hygroscopicity test) | TGA: starting to lose the acid (DSC and TGA tests) | TGA: starting to lose the water of crystallization (DSC and TGA tests)
CC(C)n1c(Nc2cccnc2)nc2cnc(Nc3ccc(N4CCN(C)CC4)cc3)nc21 [Example 15] | 96.58 mg/mL | 45.67 mg/mL | 27.84 mg/mL | 63.57 mg/mL (≈ 143 mM) | Off-white solid | Off-white solid | Hygroscopic (the weight gain due to hygroscopicity was less than 15% but not less than 2%.) | 2.59% | ~80 °C (see FIG. 39) | crystallization at about 40° C.;
CC(C)n1c(Nc2cccnc2)nc2cnc(Nc3ccc(N4CCN(C)CC4)cc3)nc21 [Example 7] | 43.07 mg/mL | 6.51 mg/mL | 12.24 mg/mL | 6.91 mg/mL (≈ 15.6 mM) | Yellow solid | Yellow solid | Slightly hygroscopic (the weight gain due to hygroscopicity was less than 2% but not less than 0.2%.) | 1.19% | ~180 °C (see FIG. 27) | crystallization at about 40° C.;
CC(C)n1c(Nc2cccnc2)nc2cnc(Nc3ccc(N4CCN(C)CC4)cc3)nc21 [Example 14] | 41.47 mg/mL | 0.72 mg/mL | 0.03 mg/mL | 0.04 mg/mL (≈ 0.0902 mM) | Off-white solid | Off-white solid | Slightly hygroscopic (the weight gain due to hygroscopicity was less than 2% but not less than 0.2%.) | 1.59% | ~80 °C (see FIG. 37) | crystallization at about 40° C.;
CC(C)n1c(Nc2cccnc2)nc2cnc(Nc3ccc(N4CCN(C)CC4)cc3)nc21 [Example 13] | 59.71 mg/mL | 8.42 mg/mL | 1.12 mg/mL | 5.06 mg/mL (≈ 11.4 mM) |  |  |  | 0.05% | ~140 °C (see FIG. 35) | crystallization at about 40° C.;
CC(C)n1c(Nc2cccnc2)nc2cnc(Nc3ccc(N4CCN(C)CC4)cc3)nc21 [Example 4] | >1000 mg/mL | >1000 mg/mL | >1000 mg/mL | >1000 mg/mL | Liquid | Liquid | Hygroscopic (the weight gain due to hygroscopicity was less than 15% but not less than 2%.) | 6.94% | ~220 °C (see FIG. 23) | crystallization at about 40° C.;
CC(C)n1c(Nc2cccnc2)nc2cnc(Nc3ccc(N4CCN(C)CC4)cc3)nc21 [Example 5] | >1000 mg/mL | >1000 mg/mL | >1000 mg/mL | >1000 mg/mL | Liquid | Liquid | Very hygroscopic (the weight gain due to hygroscopicity was not less than 15%.) | 19.62% | ~190 °C (see FIG. 25) | crystallization at about 40° C.;
CC(C)n1c(Nc2cccnc2)nc2cnc(Nc3ccc(N4CCN(C)CC4)cc3)nc21 [Example 9] | 44.51 mg/mL | 15.17 mg/mL | 11.48 mg/mL | 10.50 mg/mL (≈ 23.7 mM) |  |  | Slightly hygroscopic (the weight gain due to hygroscopicity was less than 2% but not less than 0.2%.) | 1.43% | ~170 °C (see FIG. 29) | crystallization at about 40° C.;
CC(C)n1c(Nc2cccnc2)nc2cnc(Nc3ccc(N4CCN(C)CC4)cc3)nc21 [Example 8] | 36.41 mg/mL | 14.36 mg/mL | 10.46 mg/mL | 9.74 mg/mL (≈ 22 mM) |  |  | Slightly hygroscopic (the weight gain due to hygroscopicity was less than 2% but not less than 0.2%.) | 1.43% | ~180 °C (see FIG. 28) | crystallization at about 40° C.;
CC(C)n1c(Nc2cccnc2)nc2cnc(Nc3ccc(N4CCN(C)CC4)cc3)nc21 [Example 17] | 33.29 mg/mL | 21.64 mg/mL | 31.39 mg/mL | 16.51 mg/mL (≈ 37.2 mM) |  |  | Slightly hygroscopic (the weight gain due to hygroscopicity was less than 2% but not less than 0.2%.) | 1.34% | ~210 °C (see FIG. 41) | crystallization at about 40° C.;
CC(C)n1c(Nc2cccnc2)nc2cnc(Nc3ccc(N4CCN(C)CC4)cc3)nc21 [Example 12] | 42.39 mg/mL | 2.70 mg/mL | 0.14 mg/mL | 3.09 mg/mL (≈ 6.97 mM) |  |  |  | 0.11% | ~140 °C (see FIG. 33) | crystallization at about 40° C.;
CC(C)n1c(Nc2cccnc2)nc2cnc(Nc3ccc(N4CCN(C)CC4)cc3)nc21 [Example 3] | 360.00 mg/mL | 207.53 mg/mL | 153.30 mg/mL | 212.73 mg/mL (≈ 480 mM) |  |  | Hygroscopic (the weight gain due to hygroscopicity was less than 15% but not less than 2%.) | 5.86% | ~120 °C (see FIG. 21) | crystallization at about 40° C.;
CC(C)n1c(Nc2cccnc2)nc2cnc(Nc3ccc(N4CCN(C)CC4)cc3)nc21 [Example 16] | 129.50 mg/mL | 90.03 mg/mL | 90.09 mg/mL | 76.59 mg/mL (≈ 173 mM) |  |  | Hygroscopic (the weight gain due to hygroscopicity was less than 15% but not less than 2%.) | 7.67% | ~240 °C (See FIG. 40) | crystallization at about 40° C.;
